In patent US7446199B2, “Compositions useful as inhibitors of protein kinases” (Vertex Pharmaceuticals Incorporated, priority 2003, dated 2008):
Where “and” joins values, the source holds several entries; their conditions need not be identical. Equal entries are not always repeated.

Columns and labels:
KDR = KDR (Homo sapiens, UniProt P35968); experiment: KDR enzyme assay, coupled enzyme assay; type: biochemical; settings: 300 μM ATP, 10 μM poly E4Y, 30 nM KDR, 37° C.
Outline: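 Coupled enzyme (PK/LDH, NADH) assay with 30 nM KDR in 200 mM HEPES 7.5, 10 mM MgCl2, 25 mM NaCl, 1 mM DTT, 1.5% DMSO; 300 μM ATP, 10 μM poly E4Y. Compound at 30 μM final, preincubated ~10 min at 37 °C before ATP start; rates read over 5 min at 37 °C.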

FLT-3 = molecular target: T1, FLT-3 (Homo sapiens, UniProt P36888); experiment: Inhibition of FLT-3, radiometric filter-binding assay; type: biochemical; settings: 90 μM ATP, 0.5 mg/mL pE4Y, room temperature
T1 construct: 0.02% BSA and 3 nM FLT-3
T1 sequence (P36888 27-993): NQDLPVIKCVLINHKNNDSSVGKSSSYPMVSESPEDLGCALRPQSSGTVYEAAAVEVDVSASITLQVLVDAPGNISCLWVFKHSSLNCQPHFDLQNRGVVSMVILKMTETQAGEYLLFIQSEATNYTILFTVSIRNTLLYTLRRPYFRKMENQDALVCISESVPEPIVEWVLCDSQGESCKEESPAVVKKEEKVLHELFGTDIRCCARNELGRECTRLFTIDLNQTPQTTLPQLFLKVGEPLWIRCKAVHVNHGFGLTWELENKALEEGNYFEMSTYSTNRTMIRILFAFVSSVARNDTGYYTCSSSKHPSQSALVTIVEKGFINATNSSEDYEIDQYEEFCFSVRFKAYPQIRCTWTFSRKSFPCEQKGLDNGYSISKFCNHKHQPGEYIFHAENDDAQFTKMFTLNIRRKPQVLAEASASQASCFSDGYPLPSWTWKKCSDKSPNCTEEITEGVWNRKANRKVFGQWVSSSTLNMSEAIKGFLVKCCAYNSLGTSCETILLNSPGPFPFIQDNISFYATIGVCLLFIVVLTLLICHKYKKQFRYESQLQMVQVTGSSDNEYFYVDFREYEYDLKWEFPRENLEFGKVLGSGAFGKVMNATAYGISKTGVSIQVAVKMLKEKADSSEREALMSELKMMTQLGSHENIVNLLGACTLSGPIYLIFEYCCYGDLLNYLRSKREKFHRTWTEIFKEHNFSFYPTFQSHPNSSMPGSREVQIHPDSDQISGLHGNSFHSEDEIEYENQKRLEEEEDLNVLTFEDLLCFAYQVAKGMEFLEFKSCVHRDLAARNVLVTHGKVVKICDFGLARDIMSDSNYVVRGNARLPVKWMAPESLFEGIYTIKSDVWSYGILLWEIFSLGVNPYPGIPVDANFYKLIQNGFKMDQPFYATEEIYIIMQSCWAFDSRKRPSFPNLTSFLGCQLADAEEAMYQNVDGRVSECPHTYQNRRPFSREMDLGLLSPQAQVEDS
Procedure: Compounds were screened for their ability to inhibit FLT-3 activity using a radiometric filter-binding assay. This assay monitors the ^33P incorporation into a substrate poly(Glu, Tyr) 4:1 (pE4Y). Reactions were carried out in a solution containing 100 mM HEPES (pH 7.5), 10 mM MgCl2, 25 mM NaCl, 1 mM DTT, 0.01% BSA and 2.5% DMSO. Final substrate concentrations in the assay were 90 μM ATP and 0.5 mg/mL pE4Y (both from Sigma Chemicals, St Louis, Mo.). The final concentration of compounds is generally between 0.01 and 5 μM. Typically, a 12-point titration was conducted by preparing serial dilutions from 10 mM DMSO stock of test compound. Reactions were carried out at room temperature.
Two assay solutions were prepared. Solution 1 contains 100 mM HEPES (pH 7.5), 10 mM MgCl2, 25 mM NaCl, 1 mg/ml pE4Y and 180 μM ATP(containing 0.3 μCi of [γ-^33P]ATP for each reaction). Solution 2 contains 100 mM HEPES (pH 7.5), 10 mM MgCl2, 25 mM NaCl, 2 mM DTT, 0.02% BSA and 3 nM FLT-3. The assay was run on a 96 well plate by mixing 50 μL each of Solution 1 and […] of the test compounds. The reaction was initiated with Solution2. After incubation for 20 minutes at room temperature, the reaction was stopped with 50 μL of 20% TCA containing 0.4 mM of ATP. All of the reaction volume was then transferred to a filter plate and washed with 5% TCA by a Harvester9600 from TOMTEC (Hamden, Conn.). The amount of ^33P incorporation into pE4y was analyzed by a Packard TopCount Microplate Scintillation Counter (Meriden, Conn.). The data was fitted using Prism software to get an IC50 or Ki.

Chain of KDR (P35968 20-1356): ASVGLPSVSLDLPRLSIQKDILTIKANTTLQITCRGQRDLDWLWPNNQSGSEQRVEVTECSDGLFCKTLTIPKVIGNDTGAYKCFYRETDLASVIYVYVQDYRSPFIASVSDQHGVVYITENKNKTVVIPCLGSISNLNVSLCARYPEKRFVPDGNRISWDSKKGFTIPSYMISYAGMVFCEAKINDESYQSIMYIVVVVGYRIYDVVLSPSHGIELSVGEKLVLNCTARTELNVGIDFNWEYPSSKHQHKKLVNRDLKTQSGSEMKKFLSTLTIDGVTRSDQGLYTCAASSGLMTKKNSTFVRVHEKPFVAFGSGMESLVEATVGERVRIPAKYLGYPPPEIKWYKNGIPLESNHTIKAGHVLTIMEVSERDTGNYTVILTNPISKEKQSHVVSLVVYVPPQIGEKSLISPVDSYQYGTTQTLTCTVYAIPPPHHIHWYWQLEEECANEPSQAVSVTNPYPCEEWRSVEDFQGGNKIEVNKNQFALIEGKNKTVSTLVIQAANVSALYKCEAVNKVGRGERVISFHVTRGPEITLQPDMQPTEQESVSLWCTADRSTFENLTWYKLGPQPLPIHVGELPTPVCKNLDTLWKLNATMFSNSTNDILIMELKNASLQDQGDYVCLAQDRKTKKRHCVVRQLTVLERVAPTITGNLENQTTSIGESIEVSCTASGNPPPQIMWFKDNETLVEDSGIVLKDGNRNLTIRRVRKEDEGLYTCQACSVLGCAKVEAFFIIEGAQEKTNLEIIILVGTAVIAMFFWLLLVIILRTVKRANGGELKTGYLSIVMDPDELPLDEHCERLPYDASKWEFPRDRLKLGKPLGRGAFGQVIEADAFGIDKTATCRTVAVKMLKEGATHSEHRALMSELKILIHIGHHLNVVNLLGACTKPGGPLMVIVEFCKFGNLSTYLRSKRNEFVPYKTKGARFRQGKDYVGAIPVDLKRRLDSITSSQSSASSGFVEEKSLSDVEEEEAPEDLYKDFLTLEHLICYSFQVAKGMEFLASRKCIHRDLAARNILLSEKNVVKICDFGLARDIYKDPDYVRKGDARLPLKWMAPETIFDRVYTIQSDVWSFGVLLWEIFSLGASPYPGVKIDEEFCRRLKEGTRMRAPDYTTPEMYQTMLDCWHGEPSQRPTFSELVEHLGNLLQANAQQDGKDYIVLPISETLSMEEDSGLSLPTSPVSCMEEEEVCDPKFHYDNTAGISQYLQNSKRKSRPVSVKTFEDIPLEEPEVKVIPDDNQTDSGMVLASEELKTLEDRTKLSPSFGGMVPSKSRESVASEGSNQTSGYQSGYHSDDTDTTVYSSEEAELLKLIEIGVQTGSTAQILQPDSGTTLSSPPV

Row | Ki (KDR) | Ki (FLT-3) [nM] | SMILES
1 | < 200 nM | < 200 | Fc1cccc(-c2cnoc2-c2c[nH]c3ncc(-c4ccc(N5CCNCC5)cc4)cc23)c1F [Compound 68, 3-[4-(2,3-Difluoro-phenyl)-isoxazol-5-yl]-5-(4-piperazin-1-yl-phenyl)-1H-pyrrolo[2,3-b]pyridine]
2 | < 200 nM | 200 to 1000 | Fc1ccc(-c2cnc3[nH]cc(-c4oncc4-c4cccc(F)c4F)c3c2)cn1 [Compound 69, 3-[4-(2,3-Difluoro-phenyl)-isoxazol-5-yl]-5-(6-fluoro-pyridin-3-yl)-1H-pyrrolo[2,3-b]pyridine]
3 | < 200 nM | < 200 | CN1CCN(c2ccc(-c3cnc4[nH]cc(-c5oncc5-c5cccc(F)c5F)c4c3)cc2)CC1 [Compound 70, 3-[4-(2,3-Difluoro-phenyl)-isoxazol-5-yl]-5-[4-(4-methyl-piperazin-1-yl)-phenyl]-1H-pyrrolo[2,3-b]pyridine methanesulfonate]
4 | < 200 nM | < 200 | CN1CCN(c2ccc(-c3cnc4[nH]cc(-c5oncc5-c5cccc(F)c5F)c4c3)cn2)CC1 [Compound 71, 3-[4-(2,3-Difluoro-phenyl)-isoxazol-5-yl]-5-[6-(4-methyl-piperazin-1-yl)-pyridin-3-yl]-1H-pyrrolo[2,3-b]pyridine]
5 | 1000 to 12500 nM | 200 to 1000 | Fc1cccc(-c2cnoc2-c2c[nH]c3ncc(-c4ccccn4)cc23)c1F [Compound 73, 3-(4-(2,3-Difluoro-phenyl)-isoxazol-5-yl)-5-pyridin-2-yl-1H-pyrrolo[2,3-b]pyridine]
6 | 1000 to 12500 nM | 1000 to 12500 | Fc1cccnc1-c1cnc2[nH]cc(-c3oncc3-c3cccc(F)c3F)c2c1 [Compound 74, 3-[4-(2,3-Difluoro-phenyl)-isoxazol-5-yl]-5-(3-fluoro-pyridin-2-yl)-1H-pyrrolo[2,3-b]pyridine]
7 | 200 to 1000 nM | 200 to 1000 | Fc1cccc(-c2cnoc2-c2c[nH]c3ncc(-c4ncccn4)cc23)c1F [Compound 75, 3-[4-(2,3-Difluoro-phenyl)-isoxazol-5-yl]-5-pyrimidin-2-yl-1H-pyrrolo[2,3-b]pyridine]
8 | 200 to 1000 nM | < 200 | Fc1cccc(-c2cnoc2-c2c[nH]c3ncc(-c4c[nH]cn4)cc23)c1F [Compound 76, 3-[4-(2,3-Difluoro-phenyl)-isoxazol-5-yl]-5-(3H-imidazol-4-yl)-1H-pyrrolo[2,3-b]pyridine]
9 | < 200 nM | < 200 | Fc1cccc(-c2cnoc2-c2c[nH]c3ncc(-c4cnc5[nH]ccc5c4)cc23)c1F [Compound 77, 3-[4-(2,3-Difluoro-phenyl)-isoxazol-5-yl]-1H,1′H-[5,5′]bi[pyrrolo[2,3-b]pyridinyl]]
10 | < 200 nM | 200 to 1000 | COc1ccnc(-c2cnc3[nH]cc(-c4oncc4-c4cccc(F)c4F)c3c2)c1 [Compound 78, 3-[4-(2,3-Difluoro-phenyl)-isoxazol-5-yl]-5-(4-methoxy-pyridin-2-yl)-1H-pyrrolo[2,3-b]pyridine]
11 | < 200 nM | < 200 | CN(C)C(=O)c1ccc(-c2cnc3[nH]cc(-c4oncc4-c4cccc(F)c4F)c3c2)nc1 [Compound 79, 6-{3-[4-(2,3-Difluoro-phenyl)-isoxazol-5-yl]-1H-pyrrolo [2,3-b]pyridin-5-yl}-N,N-dimethyl-nicotinamide]
12 | < 200 nM | 1000 to 12500 | CN(C)c1ccnc(-c2cnc3[nH]cc(-c4oncc4-c4cccc(F)c4F)c3c2)c1 [Compound 80, (2-{3-[4-(2,3-Difluoro-phenyl)-isoxazol-5-yl]-1H-pyrrolo[2,3-b]pyridin-5-yl}-pyridin-4-yl)-dimethyl-amine]
13 | < 200 nM | 200 to 1000 | CN(C)Cc1cc(Cl)nc(-c2cnc3[nH]cc(-c4oncc4-c4cccc(F)c4F)c3c2)c1 [Compound 81, (2-Chloro-6-{3-[4-(2,3-difluoro-phenyl)-isoxazol-5-yl]-1H-pyrrolo[2,3-b]pyridin-5-yl}-pyridin-4-ylmethyl)-dimethyl-amine]
14 | < 200 nM | < 200 | CN(C)Cc1ccnc(-c2cnc3[nH]cc(-c4oncc4-c4cccc(F)c4F)c3c2)c1 [Compound 82, (2-{3-[4-(2,3-Difluoro-phenyl)-isoxazol-5-yl]-1H-pyrrolo[2,3-b]pyridin-5-yl}-pyridin-4-ylmethyl)-dimethyl-amine]
15 | < 200 nM | 1000 to 12500 | Nc1ccnc(-c2cnc3[nH]cc(-c4oncc4-c4cccc(F)c4F)c3c2)c1 [Compound 83, 2-{3-[4-(2,3-Difluoro-phenyl)-isoxazol-5-yl]-1H-pyrrolo [2,3-b]pyridin-5-yl}-pyridin-4-ylamine]
16 | < 200 nM | < 200 | CN(C)Cc1ccc(-c2cnc3[nH]cc(-c4oncc4-c4cccc(F)c4F)c3c2)nc1 [Compound 84, (6-{3-[4-(2,3-Difluoro-phenyl)-isoxazol-5-yl]-1H-pyrrolo[2,3-b]pyridin-5-yl}-pyridin-3-ylmethyl)-dimethyl-amine]
17 | 1000 to 12500 nM | 200 to 1000 | Fc1cccc(-c2cnoc2-c2c[nH]c3ncc(-c4cncnc4)cc23)c1F [Compound 85, 3-[4-(2,3-Difluoro-phenyl)-isoxazol-5-yl]-5-pyrimidin-5-yl-1H-pyrrolo[2,3-b]pyridine]
18 | < 200 nM and 1000 to 12500 nM | < 200 | Nc1cccc(-c2cnc3[nH]cc(-c4oncc4-c4cccc(F)c4F)c3c2)c1 [Compound 86, 3-{3-[4-(2,3-Difluoro-phenyl)-isoxazol-5-yl]-1H-pyrrolo [2,3-b]pyridin-5-yl}-phenylamine]
19 | 200 to 1000 nM | < 200 | Oc1cccc(-c2cnc3[nH]cc(-c4oncc4-c4cccc(F)c4F)c3c2)c1 [Compound 87, 3-{3-[4-(2,3-Difluoro-phenyl)-isoxazol-5-yl]-1H-pyrrolo [2,3-b]pyridin-5-yl}-phenol]
20 | < 200 nM | < 200 | Nc1ccc(-c2cnc3[nH]cc(-c4oncc4-c4cccc(F)c4F)c3c2)cc1 [Compound 90, 4-{3-[4-(2,3-Difluoro-phenyl)-isoxazol-5-yl]-1H-pyrrolo [2,3-b]pyridin-5-yl}-phenylamine]
21 | 200 to 1000 nM | < 200 | CN(C)Cc1ccc(-c2cnc3[nH]cc(-c4oncc4-c4cccc(F)c4F)c3c2)cc1 [Compound 91, (4-{3-[4-(2,3-Difluoro-phenyl)-isoxazol-5-yl]-1H-pyrrolo[2,3-b]pyridin-5-yl}-benzyl)-dimethyl-amine]
22 | 200 to 1000 nM | < 200 | Fc1cccc(-c2cnoc2-c2c[nH]c3ncc(-c4ccc(CN5CCOCC5)cc4)cc23)c1F [Compound 92, 3-[4-(2,3-Difluoro-phenyl)-isoxazol-5-yl]-5-(4-morpholin-4-ylmethyl-phenyl)-1H-pyrrolo[2,3-b]pyridine]
23 | < 200 nM | < 200 | Fc1cccc(-c2cnoc2-c2c[nH]c3ncc(-c4ccc(CN5CCCC5)cc4)cc23)c1F [Compound 93, 3-[4-(2,3-Difluoro-phenyl)-isoxazol-5-yl]-5-(4-pyrrolidin-1-ylmethyl-phenyl)-1H-pyrrolo[2,3-b]pyridine]
